Patent US6472227B1, “Barbiturate assay, tracers, immunogens, antibodies and kit” (Abbott Laboratories, priority 1986, dated 2002)

Assays:
[1] = system: antibodies raised against an immunogen having the structure shown in FIG. 29; experiment: Fluorescence polarization immunoassay cross-reactivity in drug-free normal human urine, tracer of FIG. 30; assay type: binding, sheep; conditions: for % CR / Conc. Found: tracer FIG. 30; for amount of the test compound found in the resulting human urine: 200 ng/mL added to drug-free urine, secobarbital standard
Experimental: (§1) The antibodies of the present invention are prepared by eliciting a response in sheep to the immunogens described supra. The immunogen is administered to animals or to in vitro cultures of immunocompetent cells by a series of innoculations, in a manner well known to those skilled in the art.
(§2) The tracer formulation presently preferred is 150 nanomolar tracer in: 0.1 molar phosphate buffer at pH 6.2; 5% sodium 5-sulfosalicylate; 0.1% sodium azide; and 0.01% bovine gamma-globulin. The antiserum formulation comprises sheep serum diluted with: 0.1 molar tris buffer at pH 7.5; 0.1% sodium azide; 0.1% bovine gamma-globulin; and 2% ethylene glycol (volume/volume). The dilution buffer comprises: 0.1 molar sodium phosphate at pH 7.5; 0.1% sodium azide; and 0.01% bovine gamma-globulin. The pretreatment solution comprises: 0.01% bovine gamma-globulin; 0.1 molar tris buffer at pH 7.5; 0.1% sodium azide; and 10 mg/mL riboflavin binding protein.
(§3) A minimum of fifty microliters of urine is required. The calibrators, controls, or unknown samples are pipetted directly into the sample well of the TDx® or ADx® sample cartridge. […] The assay procedure from this point is fully automated.
(§4) If a manual assay is being performed, then the sample is mixed with the pretreatment solution in dilution buffer and a background reading is taken. The tracer and antibody are then mixed into the test solution. After incubation, a fluorescence polarization reading is taken.
(§5) The net fluorescence polarization value of each calibrator, control or sample is determined and is printed on the output tape of an instrument such as the Abbott TDx® Analyzer. […] The concentration of each control or sample is read off the stored calibration curve and printed on the output tape.
Cross-reactivity was tested by the method of the present invention for the commonly-used barbiturates. In each case, compounds were assayed on the Abbott Laboratories+ TDx® Clinical Analyzer or the ADx® Drugs of Abuse System after adding a known quantity (200 ng/mL) of the barbiturate test compound to drug-free normal human urine.
(§6) The five columns in Tables 4(a) and 4(b) indicate the same information as is described above for Table 3(a).

[2] = system: antibodies raised against an immunogen having the structure shown in FIG. 29; experiment: Fluorescence polarization immunoassay cross-reactivity, tracer of FIG. 31; assay type: binding, sheep; conditions: tracer FIG. 31
Experimental: as §1

[3] = system: antibodies raised against an immunogen having the structure shown in FIG. 28; experiment: Fluorescence polarization immunoassay cross-reactivity in drug-free normal human urine, tracer of FIG. 5; assay type: binding, sheep; conditions: for amount of the test compound found in the resulting human urine: 200 ng/mL added to drug-free urine, secobarbital standard
Experimental: as §1, §2, §3, §4, §5
Cross-reactivity was tested by the method of the present invention for the commonly-used barbiturates. […]
The five columns indicate the following information:
In other words, when 200 ng of secobarbital were added to drug-free normal human urine, approximately 200 ng of secobarbital were detected in the resulting urine sample. Thus, the closer the factor is to 1.0, the more accurate the assay is with respect to the particular test compound analyzed.
The percent cross-reactivity value presented in column five was obtained by the following mathematical formula: [formula]
as §6

[4] = Long-term tracer stability: polarization and net intensity after storage (Tables 2(a), 2(b)); assay type: physicochemical
Excerpt: The data presented in Tables 2(a) and 2(b) below indicate that a tracer which has an ethylene (—CH═CH—) linkage group between the fluorescein and the ligand component of the tracer remains stable at varied temperatures for a period of at least one and one half years. While a tracer having the chemical structure shown in FIG. 5 was employed to generate the data presented in Table 2(a), a tracer having the chemical structure shown in FIG. 30 was employed to generate the data presented in Table 2(b).

[5] = 200 ng/mL added, listed as secobarbital

C=CCC1(c2ccccc2)C(=O)NC(=O)NC1=O [Alphenal]
% CR ([1]; Conc. Added 1200 ng/mL): 94% | Conc. Found ([1]; Conc. Added 1200 ng/mL): 1130 ng/mL | % CR ([2]; Conc. Added 1200 ng/mL): >167%

CCC1(c2ccc(N)cc2)CCC(=O)NC1=O (stereo not drawn) [Aminoglutethimide]
amount of the test compound found ([1]; 1 μg/mL added): ND (None detected: Concentration less than the sensitivity of the assay (60 ng/mL)) | amount of the test compound found ([1]; 10 μg/mL added): 117 ng/mL | factor ([1]; 10 μg/mL added): 0.00117 | percent cross reactivity ([1]; 10 μg/mL added): 1.17% | amount of the test compound found ([1]; 100 μg/mL added): 412 ng/mL | factor ([1]; 100 μg/mL added): 0.00041 | percent cross reactivity ([1]; 100 μg/mL added): 0.41%

CCC1(CCC(C)C)C(=O)NC(=O)NC1=O [Amobarbital]
factor which overestimates or underestimates the compound assayed for ([3]; 200 ng/mL added): 1.55 | percent cross reactivity ([3]; 200 ng/mL added): 155% | amount of the test compound found in the resulting human urine [3]: 310 ng/mL | factor which overestimates or underestimates the compound assayed for ([1]; 200 ng/mL added): 0.43 | percent cross reactivity ([1]; 200 ng/mL added): 43% | amount of the test compound found in the resulting human urine [1]: 85 ng/mL | % CR ([1]; Conc. Added 1200 ng/mL): 41% | Conc. Found ([1]; Conc. Added 1200 ng/mL): 490 ng/mL | % CR ([2]; Conc. Added 1200 ng/mL): 73% | Conc. Found ([2]; Conc. Added 1200 ng/mL): 870 ng/mL

C=CCC1(C(C)C)C(=O)NC(=O)NC1=O [Aprobarbital]
factor which overestimates or underestimates the compound assayed for ([1]; 200 ng/mL added): 0.62 | percent cross reactivity ([1]; 200 ng/mL added): 62% | amount of the test compound found in the resulting human urine [1]: 123 ng/mL | % CR ([1]; Conc. Added 1200 ng/mL): 77% | Conc. Found ([1]; Conc. Added 1200 ng/mL): 920 ng/mL | % CR ([2]; Conc. Added 1200 ng/mL): 139% | Conc. Found ([2]; Conc. Added 1200 ng/mL): 1670 ng/mL

C=CCC1(CC(=C)Br)C(=O)NC(=O)NC1=O [Brallobarbital]
factor which overestimates or underestimates the compound assayed for ([1]; 200 ng/mL added): 0.94 | percent cross reactivity ([1]; 200 ng/mL added): 94% | amount of the test compound found in the resulting human urine [1]: 188 ng/mL | % CR ([1]; Conc. Added 1200 ng/mL): 117% | Conc. Found ([1]; Conc. Added 1200 ng/mL): 1400 ng/mL | % CR ([2]; Conc. Added 1200 ng/mL): 159% | Conc. Found ([2]; Conc. Added 1200 ng/mL): 1910 ng/mL

CCC(C)C1(CC)C(=O)NC(=O)NC1=O (stereo not drawn) [Butabarbital]
factor which overestimates or underestimates the compound assayed for ([1]; 200 ng/mL added): 2.24 | percent cross reactivity ([1]; 200 ng/mL added): 224% | amount of the test compound found in the resulting human urine [1]: 489 ng/mL | % CR ([1]; Conc. Added 1200 ng/mL): >167% | % CR ([2]; Conc. Added 1200 ng/mL): >167%

C=CCC1(CC(C)C)C(=O)NC(=O)NC1=O [Butalbital]
factor which overestimates or underestimates the compound assayed for ([3]; 200 ng/mL added): 1.00 | percent cross reactivity ([3]; 200 ng/mL added): 100% | amount of the test compound found in the resulting human urine [3]: 201 ng/mL | factor which overestimates or underestimates the compound assayed for ([1]; 200 ng/mL added): 1.13 | percent cross reactivity ([1]; 200 ng/mL added): 113% | amount of the test compound found in the resulting human urine [1]: 227 ng/mL | % CR ([1]; Conc. Added 1200 ng/mL): 167% | Conc. Found ([1]; Conc. Added 1200 ng/mL): 2000 ng/mL | % CR ([2]; Conc. Added 1200 ng/mL): >167%

C=CCC1(C2C=CCC2)C(=O)NC(=O)NC1=O (stereo not drawn) [Cyclopentobarbital]
% CR ([1]; Conc. Added 1200 ng/mL): >167% | % CR ([2]; Conc. Added 1200 ng/mL): >167%

CCCC(C)C1(C/C=C/C(=O)NCc2c(O)ccc3c2Oc2cc(O)ccc2C32OC(=O)c3ccccc32)C(=O)NC(=O)NC1=O (stereo not drawn) [FIG. 5]
Average Net Intensity ([4]; 1 Year, 2-8 °C): 3161-4615 | Polarization ([4]; 1 Year, 2-8 °C): 204.85 | Average Net Intensity ([4]; 18 Months, 2-8 °C): 3304-4798 | Polarization ([4]; 18 Months, 2-8 °C): 199.29 | Average Net Intensity ([4]; Day 0, 2-8 °C): 3400-5000 | Polarization ([4]; Day 0, 2-8 °C): 209.17 | Average Net Intensity ([4]; Day 1, 2-8 °C): 3290-4733 | Polarization ([4]; Day 1, 2-8 °C): 206.61 | Average Net Intensity ([4]; Day 2, 2-8 °C): 3200-4670 | Polarization ([4]; Day 2, 2-8 °C): 207.07 | Average Net Intensity ([4]; Day 3, 2-8 °C): 3367-4895 | Polarization ([4]; Day 3, 2-8 °C): 208.05 | Average Net Intensity ([4]; Day 3, 37 °C): 3400-4910 | Polarization ([4]; Day 3, 37 °C): 207.60 | Average Net Intensity ([4]; Day 3, 45 °C): 3400-4950 | Polarization ([4]; Day 3, 45 °C): 205.51 | Average Net Intensity ([4]; Day 3, −20 °C): 3395-4965 | Polarization ([4]; Day 3, −20 °C): 207.38 | Average Net Intensity ([4]; Month 2, 2-8 °C): 3282-4777 | Polarization ([4]; Month 2, 2-8 °C): 207.21 | Average Net Intensity ([4]; Month 4, 2-8 °C): 3210-4775 | Polarization ([4]; Month 4, 2-8 °C): 205.59 | Average Net Intensity ([4]; Month 8, 2-8 °C): 3150-4677 | Polarization ([4]; Month 8, 2-8 °C): 206.85 | Average Net Intensity ([4]; Week 1, 2-8 °C): 3400-4900 | Polarization ([4]; Week 1, 2-8 °C): 208.25 | Average Net Intensity ([4]; Week 1, 37 °C): 3500-5000 | Polarization ([4]; Week 1, 37 °C): 202.78 | Average Net Intensity ([4]; Week 1, 45 °C): 3550-5200 | Polarization ([4]; Week 1, 45 °C): 200.11 | Average Net Intensity ([4]; Week 1, −20 °C): 3300-4800 | Polarization ([4]; Week 1, −20 °C): 208.46 | Average Net Intensity ([4]; Week 2, 2-8 °C): 3100-4590 | Polarization ([4]; Week 2, 2-8 °C): 210.41 | Average Net Intensity ([4]; Week 2, −20 °C): 3180-4635 | Polarization ([4]; Week 2, −20 °C): 208.85 | Average Net Intensity ([4]; Week 4, 2-8 °C): 3395-4988 | Polarization ([4]; Week 4, 2-8 °C): 210.35

CC(C(=O)O)c1cccc(Oc2ccccc2)c1 (stereo not drawn) [Fenoprofen]
amount of the test compound found ([3]; 215 μg/mL added): 180 ng/mL | factor ([3]; 215 μg/mL added): 0.00084 | percent cross reactivity ([3]; 215 μg/mL added): 0.084% | amount of the test compound found ([3]; 430 μg/mL added): 290 ng/mL | factor ([3]; 430 μg/mL added): 0.00067 | percent cross reactivity ([3]; 430 μg/mL added): 0.067% | % CR ([1]; Conc. Added 200 (ng/mL)): 0.015% | Conc. Found ([1]; Conc. Added 200 (ng/mL)): 30 ng/mL | % CR ([2]; Conc. Added 200 (ng/mL)): 0.02% | Conc. Found ([2]; Conc. Added 200 (ng/mL)): 40 ng/mL

CC(C(=O)O)c1ccc(CC(C)(C)O)cc1 (stereo not drawn) [OH-Ibuprofen]
amount of the test compound found ([3]; 1 μg/mL added): ND (None detected: Concentration less than the sensitivity of the assay (60 ng/mL)) | amount of the test compound found ([3]; 10 μg/mL added): ND (None detected: Concentration less than the sensitivity of the assay (60 ng/mL)) | amount of the test compound found ([3]; 100 μg/mL added): ND (None detected: Concentration less than the sensitivity of the assay (60 ng/mL)) | amount of the test compound found ([3]; 1000 μg/mL added): 60 ng/mL | factor ([3]; 1000 μg/mL added): 0.00006 | percent cross reactivity ([3]; 1000 μg/mL added): 0.006%

C=CCC1(C(C)CCC)C(=O)NC(=O)NC1=O (stereo not drawn) [Secobarbital]
factor which overestimates or underestimates the compound assayed for ([3]; 200 ng/mL added): 1.00 | percent cross reactivity ([3]; 200 ng/mL added): 100% | amount of the test compound found in the resulting human urine [3]: 200 ng/mL | factor which overestimates or underestimates the compound assayed for [3, 5]: 1.0 | percent cross reactivity [3, 5]: 100% | factor which overestimates or underestimates the compound assayed for ([1]; 200 ng/mL added): 1.00 | percent cross reactivity ([1]; 200 ng/mL added): 100% | amount of the test compound found in the resulting human urine [1]: 200 ng/mL

Butobarbital
% CR ([1]; Conc. Added 1200 ng/mL): 48% | Conc. Found ([1]; Conc. Added 1200 ng/mL): 580 ng/mL
